Measured values as given in patent publication US20200368198A1, “METHODS FOR INCREASING FERTILITY” (NEWSOUTH INNOVATIONS PTY LIMITED, priority 2017, published 2020).
Where “and” joins values, the source holds several entries; their conditions need not be identical. Equal values may be shown once.

Columns and labels:
oocytes [1] = assay: Meiotic progression (GVBD, PBE) of harvested oocytes, doxorubicin with or without NMN; assay type: in vivo, mice; settings: doxorubicin and/or NMN
Text: Once harvested from ovaries, oocytes were stored in IBMX media to prevent progression into meiosis.

[2] = tested on: wild-type and NMNAT1-Tg female mice; assay: Oocyte yield following doxorubicin in wild-type or NMNAT1-Tg mice; assay type: in vivo; settings: 10 mg/kg i.p., two months later, PMSG, per mouse
Method: As in Example 2, 7 week-old female wild-type (“WT”) control or their littermates overexpressing NMNAT1 (“NMNAT1-Tg”) were treated with doxorubicin (10 mg/kg, i.p. injection). […] Two months later, animals were super-ovulated with PMSG, euthanased, and ovaries punctured to release MI oocytes, which were counted (FIG. 18 and Table 9).

C57BL6 females [3] = assay: Reversal design: primordial follicle counts in ovarian histology sections; assay type: in vivo, mice; settings: doxorubicin 10 mg/kg i.p., NMN in drinking water started four weeks later for 4 weeks; per mouse
Text: Ovaries were dissected from freshly euthanased animals, and preserved in 10% neutral buffered formalin for 24 hr, followed by 70% ethanol, until embedding in paraffin blocks. Blocks were sectioned on a microtome and subjected to haematoxylin and eosin (H&E) staining. Primordial follicles were manually counted by a blinded investigator.
Next, we decided to investigate whether NMN treatment delivered some time following chemotherapy treatment could actively reverse chemotherapy induced infertility. […] Four weeks later, they received NMN in their drinking water, for another 4 weeks, prior to being euthanased for either oocyte studies or ovarian histological analysis. The rationale of this experimental design is to investigate whether NMN has the ability to induce regeneration of the ovary. According to the standard dogma of reproductive biology, mammals are born with a set number of follicles which are slowly released as oocytes over the course of a lifetime, with the ovaries incapable of regenerating new follicles.

C57BL6 female mice [4] = assay: Cumulus oocyte complex yield after PMSG superovulation, doxorubicin with or without NMN; assay type: in vivo; settings: per mouse, single dose doxorubicin 10 mg/kg i.p. and/or NMN 2 g/L drinking water, 2 months post doxorubicin
Method: To assess oocyte yield, and mice were hormonally stimulated to superovulated by intraperitoneal injection with 7.5 IU/mL of Pregnant Mare's Serum Gonadotropin (PMSG) (Folligon; Intervet, Boxmeer, Holland) to stimulate follicular growth. After 44-46 hours, ovaries were collected in HEPES-buffered minimum essential medium (aMEM; […] Sigma Aldrich, St. Louis, Mo.) and 100 μM IBMX (Sigma Aldrich). […] NMN was delivered through addition to drinking water at 2 g/L, for a final dose of approximately 165 mg/kg. Administration of NMN began one day prior to doxorubicin administration. […] Ovaries were then punctured to release MI oocytes. In a separate cohort of animals, the same experiment was repeated using animals treated with the platinum based chemotherapy drug cisplatin. In FIG. 6 and Table 1, numbers of cumulus oocyte complexes are listed.

C57BL6 female mice [5] = assay: Mating trial after doxorubicin with or without NMN co-treatment; assay type: in vivo; settings: for Number of mating rounds required to achieve pregnancy: the values are: cumulative % of females pregnant by round
Method: Following oocyte counting and analysis of oocyte meiotic progression, as well as a separate cohort of animals for histological ovarian analysis, a separate cohort of animals were treated as indicated, and mated with stud males of proven track record, to assess the ability of animals to deliver live births following chemotherapy treatment in the presence of absence of NMN co-treatment.

NAMPT = NAMPT (Homo sapiens, UniProt P43490); settings: in vitro; cited from earlier work
Sequence of NAMPT (P43490 whole entry, species assumed): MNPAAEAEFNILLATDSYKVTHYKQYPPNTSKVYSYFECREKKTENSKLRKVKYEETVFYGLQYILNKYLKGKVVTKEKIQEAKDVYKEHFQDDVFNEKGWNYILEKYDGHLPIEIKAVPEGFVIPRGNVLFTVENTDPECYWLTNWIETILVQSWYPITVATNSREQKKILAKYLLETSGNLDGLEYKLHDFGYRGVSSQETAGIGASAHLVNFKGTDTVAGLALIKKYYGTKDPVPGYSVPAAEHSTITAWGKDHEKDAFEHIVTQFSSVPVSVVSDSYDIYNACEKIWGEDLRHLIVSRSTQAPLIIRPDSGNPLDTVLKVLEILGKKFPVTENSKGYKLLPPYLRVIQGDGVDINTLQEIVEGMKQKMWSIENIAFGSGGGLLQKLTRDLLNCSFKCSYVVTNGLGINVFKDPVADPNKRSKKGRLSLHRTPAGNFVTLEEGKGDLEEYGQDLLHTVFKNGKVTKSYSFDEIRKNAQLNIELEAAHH

CD38 = biological target: T1, CD38 (Homo sapiens, UniProt P28907); settings: in vitro; cited from earlier work
T1 sequence (P28907 1-300): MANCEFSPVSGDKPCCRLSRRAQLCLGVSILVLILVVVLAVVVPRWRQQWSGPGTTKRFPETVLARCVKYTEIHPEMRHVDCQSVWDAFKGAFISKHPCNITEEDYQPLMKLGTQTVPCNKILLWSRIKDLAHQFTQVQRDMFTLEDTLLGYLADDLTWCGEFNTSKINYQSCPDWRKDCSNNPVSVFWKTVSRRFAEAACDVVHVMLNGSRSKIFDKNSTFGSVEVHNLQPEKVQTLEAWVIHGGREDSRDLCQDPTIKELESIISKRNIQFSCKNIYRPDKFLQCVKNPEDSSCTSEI

C57BL6 female mice [6] = assay: Cumulus oocyte complex yield after PMSG, cisplatin with or without NMN; assay type: in vivo; settings: per mouse, single dose cisplatin 5 mg/kg i.p. and/or NMN 2 g/L drinking water, two months later
Method: To assess oocyte yield, and mice were hormonally stimulated to superovulated by intraperitoneal injection with 7.5 IU/mL of Pregnant Mare's Serum Gonadotropin (PMSG) (Folligon; Intervet, Boxmeer, Holland) to stimulate follicular growth. After 44-46 hours, ovaries were collected in HEPES-buffered minimum essential medium (aMEM; Gibco Life Technologies, Grand Island, N.Y.) supplemented with 50 µM of 3-isobuty-1-methylxanthine (IBMX) (Sigma aldrich, NSW, AU) (M2 medium) to maintain meitotic arrest at germinal vesicle stage. Cumulus oocyte complexes (COCs) were isolated from preovulatory follicles using a 27-gauge needle and collected using flame-pulled borosilicate Pasteur pipettes in M2 medium supplemented with 3 mg/ml bovine serum albumin (BSA; Sigma Aldrich, St. Louis, Mo.) and 100 μM IBMX (Sigma Aldrich). Cumulus oocyte complexes (COCs) were mechanically denuded of cumulus cells by pipetting, and the denuded oocytes were transferred to another dish containing a drop of fresh M2-medium plus IBMX on heat block with 37° C. with lid to protect oocytes from light. […]

C57BL6 females [7] = assay: Reversal design: oocyte yield, cisplatin followed by NMN 4 weeks later; assay type: in vivo, mice; settings: cisplatin 5 mg/kg i.p., per mouse
Method: To assess oocyte yield, and mice were hormonally stimulated to superovulated by intraperitoneal injection with 7.5 IU/mL of Pregnant Mare's Serum Gonadotropin (PMSG) (Folligon; Intervet, Boxmeer, Holland) to stimulate follicular growth. After 44-46 hours, ovaries were collected in HEPES-buffered minimum essential medium (aMEM; Gibco Life Technologies, Grand Island, N.Y.) supplemented with 50 µM of 3-isobuty-1-methylxanthine (IBMX) (Sigma aldrich, NSW, AU) (M2 medium) to maintain meitotic arrest at germinal vesicle stage. Cumulus oocyte complexes (COCs) were isolated from preovulatory follicles using a 27-gauge needle and collected using flame-pulled borosilicate Pasteur pipettes in M2 medium supplemented with 3 mg/ml bovine serum albumin (BSA; Sigma Aldrich, St. Louis, Mo.) and 100 μM IBMX (Sigma Aldrich). Cumulus oocyte complexes (COCs) were mechanically denuded of cumulus cells by pipetting, and the denuded oocytes were transferred to another dish containing a drop of fresh M2-medium plus IBMX on heat block with 37° C. with lid to protect oocytes from light.
Next, we decided to investigate whether NMN treatment delivered some time following chemotherapy treatment could actively reverse chemotherapy induced infertility. […]

oocytes [8] = assay: Meiotic progression (GVBD, PBE) of harvested oocytes, cisplatin with or without NMN; assay type: in vivo, mice; settings: cisplatin and/or NMN
Method: Once harvested from ovaries, oocytes were stored in IBMX media to prevent progression into meiosis. Once released from IBMX, meiotic progression was assessed by the proportions of oocytes achieving germinal vesicle breakdown (GVBD) for meiosis I, and polar body extrusion (PBE) for meiosis II, with results shown in FIGS. 7 and 8 and Tables 2 and 3.
Again, as in Example 2 above, the oocytes which were harvested from these studies were allowed to progress down meiosis, in order to assess meiotic progression rates (FIGS. 16 and 17 and Table 7 and 8).

[9] = biological target: NADH:quinone oxidoreductase (NQ01) (Homo sapiens, UniProt P15559); settings: cited from earlier work
Sequence of NADH:quinone oxidoreductase (NQ01) (P15559 whole entry): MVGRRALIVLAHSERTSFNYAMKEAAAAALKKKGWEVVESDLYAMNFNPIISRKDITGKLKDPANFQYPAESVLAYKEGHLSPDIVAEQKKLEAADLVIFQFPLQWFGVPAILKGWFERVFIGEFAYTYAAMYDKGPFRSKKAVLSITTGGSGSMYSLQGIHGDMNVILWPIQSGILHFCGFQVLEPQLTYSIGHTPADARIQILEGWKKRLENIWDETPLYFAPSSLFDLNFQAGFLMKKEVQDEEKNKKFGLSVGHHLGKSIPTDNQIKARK

COc1cccc2c1C(=O)c1c(O)c3c(c(O)c1C2=O)C[C@@](O)(C(=O)CO)C[C@@H]3O[C@H]1C[C@H](N)[C@H](O)[C@H](C)O1 [Dox, doxorubicin]
Proportion of harvested oocytes achieving germinal vesicle breakdown (oocytes [1]; 1 h after release from IBMX): 19 % of total | Proportion of harvested oocytes achieving germinal vesicle breakdown (oocytes [1]; 2 h after release from IBMX): 92 % of total | Proportions of oocytes achieving polar body extrusion (oocytes [1]; 14 hr following GVBD): 21 | Proportions of oocytes achieving polar body extrusion (oocytes [1]; 16 hr following GVBD): 52 | Proportions of oocytes achieving polar body extrusion (oocytes [1]; 20 hr following GVBD): 81 | Oocyte yield following doxorubicin treatment ([2]; NMNAT1-Tg mice): 13 (2×) and 12 and 11 and 15 and 10 (2×) and 18 | Oocyte yield following doxorubicin treatment ([2]; wild-type mice): 1 (2×) and 4 (2×) and 2 and 7 and 9 (2×) and 3 | Primordial follicle numbers in ovarian histology sections (C57BL6 females [3]): 34 and 50 and 49 and 41 | Numbers of cumulus oocyte complexes released from mice (C57BL6 female mice [4]): 1 and 8 and 9 and 3 and 6 and 7 and 5 | Number of mating rounds required to achieve pregnancy (C57BL6 female mice [5]; Round 0): 0% | Number of mating rounds required to achieve pregnancy (C57BL6 female mice [5]; Round 1): 60% | Number of mating rounds required to achieve pregnancy (C57BL6 female mice [5]; Round 2): 90% | Number of mating rounds required to achieve pregnancy (C57BL6 female mice [5]; Round 3): 90% | Number of live pups born per litter (C57BL6 female mice [5]; per litter, female C57BL6 mice treated with doxorubicin and/or NMN, mated): strong reduction

OC(CNc1ccccc1)Cn1c2ccc(Br)cc2c2cc(Br)ccc21 (stereo not shown) [P7C3]
Effect on NAMPT activity (NAMPT): enhances activity of NAMPT in vitro

O=c1cc(-c2ccc(O)cc2)oc2cc(O)cc(O)c12 [apigenin, 5,7-dihydroxy-2-(4-hydroxyphenyl)-4H-1-benzopyran-4-one]
Inhibition of CD38 activity (CD38): inhibitors of CD38 activity in vitro

N.N.[Cl][Pt][Cl] [cisplatin]
Numbers of cumulus oocyte complexes released from mice (C57BL6 female mice [6]): reduces oocyte yield and 10 and 5 and 6 and 0 and 4 and 9 | Oocyte yield (C57BL6 females [7]): 6 and 5 (2×) and 2 and 4 | Proportion of harvested oocytes achieving germinal vesicle breakdown (oocytes [8]; 1 h after release from IBMX): 43 % of total | Proportion of harvested oocytes achieving germinal vesicle breakdown (oocytes [8]; 2 h after release from IBMX): 100 % of total | Proportion of harvested oocytes achieving polar body extrusion (oocytes [8]; 14 hr following completion of GVBD): 40 % of total | Proportion of harvested oocytes achieving polar body extrusion (oocytes [8]; 16 hr following completion of GVBD): 70 % of total | Proportion of harvested oocytes achieving polar body extrusion (oocytes [8]; 20 hr following completion of GVBD): 85 % of total

O=c1c(O)c(-c2ccc(O)c(O)c2)oc2cc(O)cc(O)c12 [quercetin, 2-(3,4-dihydroxyphenyl)-3,5,7-trihydroxy-4H-chromen-4-one]
Inhibition of CD38 activity (CD38): inhibitors of CD38 activity in vitro

CC1(C)CCC2=C(O1)c1ccccc1C(=O)C2=O [β-lapachone, 3,4-dihydro-2,2-dimethyl-2H-napthol[1,2-b]pyran-5,6-dione]
Effect on NQ01 [9]: activates the enzyme NADH:quinone oxidoreductase (NQ01)
